Source: ChEMBL document CHEMBL1141058, “Squaric monoamide monoester as a new class of reactive immunization hapten for catalytic antibodies” (Bioorg Med Chem Lett, 2005)

Columns and labels:
[1] = system: Monoclonal antibody (mAb) 2D4; test: Ratio of reaction constant of paraoxon hydrolysis catalysed by monoclonal antibody 2D4 to that Michaelis-Menten's constant
[2] = system: Monoclonal antibody (mAb) 2D4; test: Reaction constant of paraoxon hydrolysis catalyse by monoclonal antibody, 2D4 determined in 50 mM bicine with 50 mM NaCl, pH 8.0, 5% DMSO cosolvent at 23 degree C
[3] = system: Monoclonal antibody (mAb) 2D4; test: Ratio of reaction constant of paraoxon hydrolysis catalysed by monoclonal antibody 2D4 to that of uncatalysed
[4] = system: Monoclonal antibody (mAb) 3C8; test: Ratio of reaction constant of paraoxon hydrolysis catalysed by monoclonal antibody 3C8 to that Michaelis-Menten's constant
[5] = system: Monoclonal antibody (mAb) 3C8; test: Ratio of reaction constant of paraoxon hydrolysis catalysed by monoclonal antibody 3C8 to that of uncatalysed
[6] = system: Monoclonal antibody (mAb) 3C8; test: Michaelis-Menten constant of monoclonal antibody, 3C8 for paraoxon hydrolysis determined in 50 mM bicine with 50 mM NaCl, pH 8.0, 5% DMSO cosolvent at 23 degree C
[7] = system: Monoclonal antibody (mAb) 2D4; test: Michaelis-Menten's constant of monoclonal antibody, 2D4 for paraoxon hydrolysis determined in 50 mM bicine with 50 mM NaCl, pH 8.0, 5% DMSO cosolvent at 23 degree C
[8] = system: Monoclonal antibody (mAb) 3C8; test: Reaction constant of paraoxon hydrolysis catalyse by monoclonal antibody, 3C8 determined in 50 mM bicine with 50 mM NaCl, pH 8.0, 5% DMSO cosolvent at 23 degree C

k cat/Km [1]: 0.0322 M⁻¹ s⁻¹
k cat [2]: 3.8e-05 s⁻¹
k cat/Kuncat [3]: 2310
k cat/Km [4]: 0.0262 M⁻¹ s⁻¹
k cat/Kuncat [5]: 2060
Km [6]: 1290 µM
Km [7]: 1180 µM
k cat [8]: 3.38e-05 s⁻¹
SMILES: CCOc1c(Nc2ccc(NC(=O)CCCC(=O)O)cc2)c(=O)c1=O
